Tests used:
Saccharomyces cerevisiae [1] = assay: Antifungal activity against Saccharomyces cerevisiae RS321NYCp50 by microtiter yeast assay; format: functional, organism-based
Saccharomyces cerevisiae [2] = assay: Antifungal activity against Saccharomyces cerevisiae RS321NpRAD52 by microtiter yeast assay; format: functional, organism-based
A2780 = assay: Cytotoxicity against human A2780 cells; format: functional

Structure (SMILES) | Activity (Saccharomyces cerevisiae [1]) | Activity (Saccharomyces cerevisiae [2]) | Activity (A2780)
CN(C=O)CCc1ccc(O)cc1 | Dose-dependent effect | Dose-dependent effect | –
CN1CCc2c([nH]c3ccccc23)C1 | – | – | 38%
CN(C)CCc1ccc(O)cc1 [HORDENINE] | – | – | 39%

Source: ChEMBL document CHEMBL1158797, “Alkaloids and aromatics of Cyathobasis fruticulosa (Bunge) Aellen” (2005)
